Drawing on patent US20220073536A1 (Rigel Pharmaceuticals, Inc., priority 2003, published 2022), this text covers IC50 for 27 compounds.

Each structure is given as a SMILES string. Where two headings read alike, the source gives them in different places.

The subject of this assay is cultured human mast cells (CHMC). The assay is described as follows: CHMC low cell density IgE activation: tryptase assay. The format is cell-based. The following applies: low cell density, IgE activation. A digest of the protocol: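 Anti-IgE-driven degranulation of cultured human mast cells at low density, 1000–1500 cells/well, was induced over 30 min at 37 °C. It was scored by supernatant tryptase activity on a fluorogenic substrate.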

The mark [1] stands for this setting: 3 pt, read-out: LD Tryptase, CHMC, IgE, 3 pt.
Where [2] appears, read: 8 pt, read-out: LD Tryptase, CHMC, IgE, 8 pt.
[3] abbreviates: Homo sapiens, Mast cell, 8 pt, read-out: LD Tryptase, CHMC, IgE, 8 pt.
Where [4] appears, read: Homo sapiens, Mast cell, 3 pt, read-out: LD Tryptase, CHMC, IgE, 3 pt.

In the case of `C[C@@H]1Oc2ccc(Nc3nc(Nc4ccc5c(c4)nc(N4CCOCC4)n5C)ncc3F)cc2NC1=O` [Compound 945, (S)-5-Fluoro-N2-[1-methyl-2-(4-morpholino)benzimidazol-5-yl]-N4-(2-methyl-3-oxo-2H,4H-benz[1,4]oxazin-6-yl)-2,4-pyrimidinediamine], the IC50 under setting [1] is under 10 µM and the IC50 under setting [2] is under 10 µM.

Take `Cn1c(N2CCOCC2)nc2cc(Nc3ncc(F)c(Nc4ccc5c(n4)NC(=O)C(C)(C)O5)n3)ccc21` [Compound 946, N4-(2,2-Dimethyl-3-oxo-4H-5-pyrido[1,4]oxazin-6-yl)-5-fluoro-N2-[1-methyl-2-(4-morpholino)benzimidazol-5-yl]-2,4-pyrimidinediamine]: the IC50 is under 10 µM under setting [1] and under 10 µM under setting [2]. `Cc1nc2cc(Nc3ncc(F)c(Nc4ccc(Cl)c(Cl)c4)n3)ccc2n1CCCO` [Compound 947]: the IC50 under setting [3] is under 10 µM. On to `COc1ccc(Nc2nc(Nc3ccc4c(c3)nc(C)n4CCCO)ncc2F)cc1Cl` [Compound 948], for which the IC50 under setting [3] was under 10 µM. As to `Cc1nc2cc(Nc3ncc(F)c(Nc4ccc5c(c4)NC(=O)C(C)(C)O5)n3)ccc2n1CCCO` [Compound 949], under setting [3], the IC50 was under 10 µM.

Consider `Cc1nc2cc(Nc3ncc(F)c(Nc4ccc5c(c4)NC(=O)[C@H](C)O5)n3)ccc2n1CCCO` [Compound 950], for which, under setting [3], the IC50 was under 10 µM.

As to `Cc1nc2cc(Nc3ncc(F)c(Nc4ccc5c(n4)NC(=O)C(C)(C)O5)n3)ccc2n1CCCO` [Compound 951, N4-(2,2-Dimethyl-3-oxo-4H-5-pyrido[1,4]oxazin-6-yl)-5-fluoro-N2-[1-(3-hydroxypropyl)-2-methylbenzimidazol-5-yl]-2,4-pyrimidinediamine], the IC50 runs as follows: under setting [1], under 10 µM; under setting [2], under 10 µM. Take `CC(=O)NCCCn1c(C)nc2cc(Nc3ncc(F)c(Nc4ccc5c(c4)NC(=O)C(C)(C)O5)n3)ccc21` [Compound 952]: the IC50 was under 10 µM under setting [4] and under 10 µM under setting [3]. Regarding `CC(=O)NCCCn1c(C)nc2cc(Nc3ncc(F)c(Nc4ccc5c(n4)NC(=O)C(C)(C)O5)n3)ccc21` [Compound 953, N2-[1-[3-(N-Acetylamino)propyl]-2-methylbenzimidazol-5-yl]-N4-(2,2-Dimethyl-3-oxo-4H-5-pyrido[1,4]oxazin-6-yl)-5-fluoro-2,4-pyrimidinediamine], the IC50 by setting is: under setting [1], under 10 µM; under setting [2], under 10 µM. As to `Cn1c(CN2CCOCC2)nc2cc(Nc3ncc(F)c(Nc4ccc(Cl)c(Cl)c4)n3)ccc21` [Compound 954, N4-(3,4-Dichlorophenyl)-5-fluoro-N2-[1-methyl-2-(4-morpholinomethyl)benzimidazol-5-yl]-2,4-pyrimidinediamine], the IC50 is, setting by setting: under setting [1], under 10 µM; under setting [2], under 10 µM. For the compound `COc1ccc(Nc2nc(Nc3ccc4c(c3)nc(CN3CCOCC3)n4C)ncc2F)cc1Cl` [Compound 955, N4-(3-Chloro-4-methoxyphenyl)-5-fluoro-N2-[1-methyl-2-(4-morpholinomethyl)benzimidazol-5-yl]-2,4-pyrimidinediamine], the IC50 under setting [2] is under 10 µM. In the case of `Cn1c(CN2CCOCC2)nc2cc(Nc3ncc(F)c(Nc4ccc5c(c4)NC(=O)C(C)(C)O5)n3)ccc21` [Compound 956, N4-(2,2-Dimethyl-3-oxo-4H-benz[1,4]oxazin-6-yl)-5-fluoro-N2-[1-methyl-2-(4-morpholinomethyl)benzimidazol-5-yl]-2,4-pyrimidinediamine], the IC50 under setting [2] was under 10 µM. In the case of `C[C@@H]1Oc2ccc(Nc3nc(Nc4ccc5c(c4)nc(CN4CCOCC4)n5C)ncc3F)cc2NC1=O` [Compound 957, (S)-5-Fluoro-N2-[1-methyl-2-(4-morpholinomethyl)benzimidazol-5-yl]-N4-(2-methyl-3-oxo-2H,4H-benz[1,4]oxazin-6-yl)- -2,4-pyrimidinediamine], the IC50 reads like this: under setting [1], under 10 µM; under setting [2], under 10 µM.

Take `Cn1c(CN2CCOCC2)nc2cc(Nc3ncc(F)c(Nc4ccc5c(n4)NC(=O)C(C)(C)O5)n3)ccc21` [Compound 958, N4-(2,2-Dimethyl-3-oxo-4H-5-pyrido[1,4]oxazin-6-yl)-5-fluoro-N2-[1-methyl-2-(4-morpholinomethyl)benzimidazol-5-yl]-2,4-pyrimidinediamine]: the IC50 under setting [2] was under 10 µM. For `COc1ccc(Nc2nc(Nc3ccc4[nH]c(CN5CCOCC5)nc4c3)ncc2F)cc1Cl` [Compound 960, N4-(3-Chloro-4-methoxyphenyl)-5-fluoro-N2-[2-(4-morpholinomethyl)-1H-benzimidazol-5-yl]-2,4-pyrimidinediamine], the IC50 under setting [2] was under 10 µM. On to `CC1(C)Oc2ccc(Nc3nc(Nc4ccc5[nH]c(CN6CCOCC6)nc5c4)ncc3F)cc2NC1=O` [Compound 961, N4-(2,2-Dimethyl-3-oxo-4H-benz[1,4]oxazin-6-yl)-5-fluoro-N2-[2-(4-morpholinomethyl)-1H-benzimidazol-5-yl]-2,4-pyrimidinediamine], for which, under setting [3], the IC50 was under 10 µM. Same read-out and setting: for `CC1(C)Oc2ccc(Nc3nc(Nc4ccc5[nH]c(CN6CCOCC6)nc5c4)ncc3F)nc2NC1=O` [Compound 962, N4-(2,2-Dimethyl-3-oxo-4H-5-pyrido[1,4]oxazin-6-yl)-5-fluoro-N2-[2-(4-morpholinomethyl)-1H-benzimidazol-5-yl]-2,4-pyrimidinediamine] the value was under 10 µM. Regarding `Cc1nc2cc(Nc3ncc(F)c(Nc4ccc5c(c4)NC(=O)C(C)(C)O5)n3)ccc2n1CCCNS(C)(=O)=O` [Compound 963], under setting [3], the IC50 was under 10 µM.

For `Cc1nc2cc(Nc3ncc(F)c(Nc4ccc5c(n4)NC(=O)C(C)(C)O5)n3)ccc2n1CCCNS(C)(=O)=O` [Compound 964, N4-(2,2-Dimethyl-3-oxo-4H-5-pyrido[1,4]oxazin-6-yl)-5-fluoro-N2-[2-methyl-1-[3-(N-methylsulfonylamino)propyl]benzimidazol-5-yl]-2,4-pyrimidinediamine], the IC50 was under 10 µM under setting [1] and under 10 µM under setting [2]. Turning to `Cn1c(CS(C)(=O)=O)nc2cc(Nc3ncc(F)c(Nc4ccc(Cl)c(Cl)c4)n3)ccc21` [Compound 965], the IC50 under setting [4] was under 10 µM.

Regarding `COc1ccc(Nc2nc(Nc3ccc4c(c3)nc(CS(C)(=O)=O)n4C)ncc2F)cc1Cl` [Compound 966], the IC50 under setting [4] is under 10 µM.

Turning to `C[C@@H]1Oc2ccc(Nc3nc(Nc4ccc5c(c4)nc(CS(C)(=O)=O)n5C)ncc3F)cc2NC1=O` [Compound 968], the IC50 reads like this: under setting [4], under 10 µM; under setting [3], under 10 µM.

`Cn1c(CS(C)(=O)=O)nc2cc(Nc3ncc(F)c(Nc4ccc5c(n4)NC(=O)C(C)(C)O5)n3)ccc21` [Compound 969, N4-(2,2-Dimethyl-3-oxo-4H-5-pyrido[1,4]oxazin-6-yl)-5-fluoro-N2-{1-methyl-2-[ (methylsulfonyl)methyl]benzimidazol-5-yl}-2,4-pyrimidinediamine]: the IC50 was under 10 µM under setting [1] and under 10 µM under setting [2]. As for `CCN(CC)Cc1nc2cc(Nc3ncc(F)c(Nc4ccc(Cl)c(Cl)c4)n3)ccc2n1C` [Compound 970], the IC50 under setting [4] was under 10 µM. As for `CCN(CC)Cc1nc2cc(Nc3ncc(F)c(Nc4ccc(OC)c(Cl)c4)n3)ccc2n1C` [Compound 971], under setting [4], the IC50 was under 10 µM. Turning to `CCN(CC)Cc1nc2cc(Nc3ncc(F)c(Nc4ccc5c(c4)NC(=O)C(C)(C)O5)n3)ccc2n1C` [Compound 972], the IC50 is under 10 µM under setting [4] and under 10 µM under setting [3]. Turning to `CCN(CC)Cc1nc2cc(Nc3ncc(F)c(Nc4ccc5c(c4)NC(=O)[C@H](C)O5)n3)ccc2n1C` [Compound 973], the IC50 is under 10 µM under setting [4] and under 10 µM under setting [3].
